Measurements reported in PMC11149917, “Translational and Therapeutic Evaluation of RAS-GTP Inhibition by RMC-6236 in RAS-Driven Cancers” (Cancer Discovery, 2024).
Read-outs that look alike come from different tables or passages of the source.

System: panel of 78 cancer cell lines
Test: Cell panel 3D methylcellulose CellTiter-Glo proliferation
Type: cell-based
Conditions: Homo sapiens
Description: A panel of 78 cancer cell lines harboring mutant and wild-type RAS was selected for screening at Crown Bioscience (Supplementary Table S2). The panel consisted of cell lines with any substitution at position 12 of KRAS, cell lines with any substitutions at position 61 of NRAS, and cell lines with a BRAF^V600E mutation. […] Cells were incubated for 120 hours prior to measurement of adenosine triphosphate (ATP) levels using the CellTiter-Glo Luminescent Cell Viability Assay (CTG; Promega, G7572), a method of determining the number of metabolically active cells based on quantitation of cellular ATP, according to the manufacturer's instructions. To measure induction of apoptosis, cells were incubated with RMC-6236 for 48 hours prior to measuring cleavage of a proluminescent caspase-3/7 DEVD-aminoluciferin substrate using the CaspaseGlo-3/7 Assay (Promega, G8092) according to the manufacturer’s instructions.

In the case of `CCn1c(-c2cc(N3CCN(C)CC3)cnc2[C@H](C)OC)c2c3cc(ccc31)-c1csc(n1)C[C@H](NC(=O)[C@H]1C[C@@H]1C)C(=O)N1CCC[C@H](N1)C(=O)OCC(C)(C)C2` [RMC-6236], the EC50 (A549, A549, KRAS G12S, Lung, read-out: Proliferation Inhibition (EC50)) is reported as 54.6 nM, the EC50 (A-375, A375, BRAF V600E, Skin, read-out: Proliferation Inhibition (EC50)) is reported as > 100 nM and the EC50 (A-427, A427, KRAS G12D, Lung, read-out: Proliferation Inhibition (EC50)) is reported as 97.6 nM. The EC50 (AGS, KRAS G12D, Stomach, read-out: Proliferation Inhibition (EC50)) was 3.2 nM, the EC50 (ASH3, NRAS Q61R, Head and Neck/Thyroid, read-out: Proliferation Inhibition (EC50)) was 91.4 nM and the EC50 (ASPC1, ASPC1, KRAS G12D, Pancreas, read-out: Proliferation Inhibition (EC50)) was 6.9 nM. The EC50 (CAL-62, CAL62, KRAS G12R, Head and Neck/Thyroid, read-out: Proliferation Inhibition (EC50)) was 19 nM, the EC50 (CAPAN-1, CAPAN1, KRAS G12V, Pancreas, read-out: Proliferation Inhibition (EC50)) was 4.6 nM and the EC50 (CFPAC-1, CFPAC1, KRAS G12V, Pancreas, read-out: Proliferation Inhibition (EC50)) was 15.2 nM. The EC50 (CHP-212, CHP212, NRAS Q61K, Brain and Nerves, read-out: Proliferation Inhibition (EC50)) was 21.9 nM, the EC50 (COLO 201, COLO201, BRAF V600E, Intestine/Large/Colorectum, read-out: Proliferation Inhibition (EC50)) was > 100 nM and the EC50 (COR-L23, CORL23, KRAS G12V, Lung, read-out: Proliferation Inhibition (EC50)) was 8.6 nM. It also gave an EC50 (Calu-1, CALU1, KRAS G12C, Lung, read-out: Proliferation Inhibition (EC50)) of 2.1 nM, an EC50 (Capan-2, CAPAN2, KRAS G12V, Pancreas, read-out: Proliferation Inhibition (EC50)) of 5.8 nM and an EC50 (CoC1, COC1, KRAS G12D, Ovary, read-out: Proliferation Inhibition (EC50)) of 57.1 nM. The EC50 (HCC15, HCC15, NRAS Q61K, Lung, read-out: Proliferation Inhibition (EC50)) was > 100 nM, the EC50 (HCC44, HCC44, KRAS G12C, Lung, read-out: Proliferation Inhibition (EC50)) was 3.3 nM and the EC50 (HEC-1-A, HEC1A, KRAS G12D, Uterus, read-out: Proliferation Inhibition (EC50)) was 44.8 nM. The EC50 (HM7, KRAS G12D, Intestine/Large/Colorectum, read-out: Proliferation Inhibition (EC50)) was > 100 nM, the EC50 (HPAC, KRAS G12D, Pancreas, read-out: Proliferation Inhibition (EC50)) was 74.3 nM and the EC50 (HPAF-II, HPAFII, KRAS G12D, Pancreas, read-out: Proliferation Inhibition (EC50)) was 6.3 nM. The EC50 (HT-1080, HT1080, NRAS Q61K, Soft tissue, read-out: Proliferation Inhibition (EC50)) was 7.5 nM, the EC50 (HepG2, HEPG2, NRAS Q61L, Liver, read-out: Proliferation Inhibition (EC50)) was 22.8 nM and the EC50 (HuCCT-1, HUCCT1, KRAS G12D, Liver/Bile duct, read-out: Proliferation Inhibition (EC50)) was 25.7 nM. It also gave an EC50 (HuP-T4, HUPT4, KRAS G12V, Pancreas, read-out: Proliferation Inhibition (EC50)) of 19 nM, an EC50 (KP4, KRAS G12D, Pancreas, read-out: Proliferation Inhibition (EC50)) of 31.1 nM and an EC50 (KRAS^G12X cells, read-out: median EC50, cell growth inhibition) of 8 nM. For the same molecule, the EC50 (KYSE-410, KYSE410, KRAS G12C, HN/Esophagus, read-out: Proliferation Inhibition (EC50)) was 63.2 nM, the EC50 (LCLC-97TM1, LCLC97TM1, KRAS G12V, Lung, read-out: Proliferation Inhibition (EC50)) was 1.1 nM and the EC50 (LS174T, KRAS G12D, Intestine/Large/Colorectum, read-out: Proliferation Inhibition (EC50)) was > 100 nM. The EC50 (LS180, LS180, KRAS G12D, Intestine/Large/Colorectum, read-out: Proliferation Inhibition (EC50)) was 87.1 nM, the EC50 (LS-123, LS123, KRAS G12S, Intestine/Large/Colorectum, read-out: Proliferation Inhibition (EC50)) was 3.8 nM and the EC50 (LS-513, LS513, KRAS G12D, Intestine/Large/Colorectum, read-out: Proliferation Inhibition (EC50)) was 7.1 nM. For the same molecule, the EC50 (MIA PaCa-2, MIAPACA2, KRAS G12C, Pancreas, read-out: Proliferation Inhibition (EC50)) was 61.8 nM, the EC50 (NCI-H23, NCIH23, KRAS G12C, Lung, read-out: Proliferation Inhibition (EC50)) was 7.1 nM and the EC50 (NCI-H358, NCIH358, KRAS G12C, Lung, read-out: Proliferation Inhibition (EC50)) was 3.9 nM. The EC50 (NCI-H441, NCIH441, KRAS G12V, Lung, read-out: Proliferation Inhibition (EC50)) was 2.6 nM, the EC50 (NCI-H727, NCIH727, KRAS G12V, Lung, read-out: Proliferation Inhibition (EC50)) was 4.2 nM and the EC50 (NCI-H1299, NCIH1299, NRAS Q61K, Lung, read-out: Proliferation Inhibition (EC50)) was 26.3 nM. For the same molecule, the EC50 (NCI-H1373, NCIH1373, KRAS G12C, Lung, read-out: Proliferation Inhibition (EC50)) was 5.2 nM, the EC50 (NCI-H1792, NCIH1792, KRAS G12C, Lung, read-out: Proliferation Inhibition (EC50)) was 7.4 nM and the EC50 (NCI-H2009, NCIH2009, KRAS G12A, Lung, read-out: Proliferation Inhibition (EC50)) was 19.3 nM. The EC50 (NCI-H2087, NCIH2087, NRAS Q61K, Lung, read-out: Proliferation Inhibition (EC50)) was 4 nM, the EC50 (NCI-H2122, NCIH2122, KRAS G12C, Lung, read-out: Proliferation Inhibition (EC50)) was 6.7 nM and the EC50 (NOZ, KRAS G12V, Liver/Bile duct, read-out: Proliferation Inhibition (EC50)) was 33.1 nM. It also gave an EC50 (NRAS^Q61X cells, read-out: median EC50, cell growth inhibition) of 22 nM, an EC50 (OVCAR-5, OVCAR5, KRAS G12V, Ovary, read-out: Proliferation Inhibition (EC50)) of 2 nM and an EC50 (PANC-1, PANC1, KRAS G12D, Pancreas, read-out: Proliferation Inhibition (EC50)) of 1.4 nM. For the same molecule, the EC50 (PANC-03-27, PANC0327, KRAS G12V, Pancreas, read-out: Proliferation Inhibition (EC50)) was 1 nM, the EC50 (PL45, PL45, KRAS G12D, Pancreas, read-out: Proliferation Inhibition (EC50)) was 86.5 nM and the EC50 (Panc 05.04, PANC0504, KRAS G12D, Pancreas, read-out: Proliferation Inhibition (EC50)) was 6.1 nM. The EC50 (Panc1005, PANC1005, KRAS G12D, Pancreas, read-out: Proliferation Inhibition (EC50)) was 27.1 nM, the EC50 (RBE, KRAS G12V, Liver/Bile duct, read-out: Proliferation Inhibition (EC50)) was 5.8 nM and the EC50 (RKO*, BRAF V600E, Intestine/Large/Colorectum, read-out: Proliferation Inhibition (EC50)) was > 100 nM. The EC50 (SHP77, SHP77, KRAS G12V, Lung, read-out: Proliferation Inhibition (EC50)) was > 100 nM, the EC50 (SK-CO-1, SKCO1, KRAS G12V, Intestine/Large/Colorectum, read-out: Proliferation Inhibition (EC50)) was 3 nM and the EC50 (SK-LU-1, SKLU1, KRAS G12D, Lung, read-out: Proliferation Inhibition (EC50)) was 6 nM. For the same molecule, the EC50 (SK-MEL-2, SKMEL2, NRAS Q61R, Skin, read-out: Proliferation Inhibition (EC50)) was 38.8 nM, the EC50 (SK-N-AS, SKNAS, NRAS Q61K, Brain and Nerves, read-out: Proliferation Inhibition (EC50)) was 8.3 nM and the EC50 (SK-N-SH, SKNSH, NRAS Q61K, Brain and Nerves, read-out: Proliferation Inhibition (EC50)) was > 100 nM. For the same molecule, the EC50 (SNU1, SNU1, KRAS G12D, Stomach, read-out: Proliferation Inhibition (EC50)) was 13 nM, the EC50 (SNU719, NRAS Q61L, Stomach, read-out: Proliferation Inhibition (EC50)) was 32.2 nM and the EC50 (SNU-387, SNU387, NRAS Q61K, Liver, read-out: Proliferation Inhibition (EC50)) was 9.2 nM. For the same molecule, the EC50 (SNU-601, SNU601, KRAS G12D, Stomach, read-out: Proliferation Inhibition (EC50)) was 26.2 nM, the EC50 (SNUC2A, KRAS G12D, Intestine/Large/Colorectum, read-out: Proliferation Inhibition (EC50)) was > 100 nM and the EC50 (SU.86.86, SU8686, KRAS G12D, Pancreas, read-out: Proliferation Inhibition (EC50)) was 20.2 nM. For the same molecule, the EC50 (SW480, SW480, KRAS G12V, Intestine/Large/Colorectum, read-out: Proliferation Inhibition (EC50)) was 5.1 nM, the EC50 (SW626, SW626, KRAS G12V, Ovary, read-out: Proliferation Inhibition (EC50)) was 3.8 nM and the EC50 (SW756, SW756, KRAS G12C, Ovary, read-out: Proliferation Inhibition (EC50)) was 26.9 nM. The EC50 (SW837, SW837, KRAS G12C, Intestine/Large/Colorectum, read-out: Proliferation Inhibition (EC50)) was 18.8 nM, the EC50 (SW900, SW900, KRAS G12V, Lung, read-out: Proliferation Inhibition (EC50)) was 3.1 nM and the EC50 (SW 1116, SW1116, KRAS G12A, Intestine/Large/Colorectum, read-out: Proliferation Inhibition (EC50)) was 70.9 nM. The EC50 (SW1271, SW1271, NRAS Q61R, Lung, read-out: Proliferation Inhibition (EC50)) was 4.6 nM, the EC50 (SW1463, SW1463, KRAS G12C, Intestine/Large/Colorectum, read-out: Proliferation Inhibition (EC50)) was 20.4 nM and the EC50 (SW1573, SW1573, KRAS G12C, Lung, read-out: Proliferation Inhibition (EC50)) was > 100 nM. For the same molecule, the EC50 (SW1990, SW1990, KRAS G12D, Pancreas, read-out: Proliferation Inhibition (EC50)) was 6.7 nM, the EC50 (SW-403, SW403, KRAS G12V, Intestine/Large/Colorectum, read-out: Proliferation Inhibition (EC50)) was 3.5 nM and the EC50 (SW-620, SW620, KRAS G12V, Intestine/Large/Colorectum, read-out: Proliferation Inhibition (EC50)) was 2.7 nM. For the same molecule, the EC50 (UMUC3, UMUC3, KRAS G12C, Bladder, read-out: Proliferation Inhibition (EC50)) was 2.6 nM, the EC50 (YCC2, KRAS G12S, Stomach, read-out: Proliferation Inhibition (EC50)) was 22.9 nM and the EC50 (all three BRAF^V600E mutant cells, read-out: resistance to growth inhibition) was > 100 nM.
